Laboratory results: patent publication US20250326785A1, “SODIUM SALT AND ETHANOLAMINE SALT OF 23-HYDROXYTORMENTIC ACID” (HUYABIO International, LLC, priority 2024, published 2025)
Entries after “also recorded” stand apart in the source; their conditions may differ.

How the values were obtained:
[1] = tested on: Adult rats (Sprague Dawley) with MI by LAD ligation; assay: Rat myocardial infarction model: pressure-volume catheter measurement; assay type: in vivo
From the text: (§1) Animal Model and Myocardial Infarction: Adult rats (Sprague Dawley (SD), body weight, -250 g) were used to generate a model with MI by LAD ligation of the heart as described in the previous study (Chongyu Zhang, Meng-Hsuan Hsieh, Song-Yi Wu, Shu-Hong Li, Jun Wu, Shi-Ming Liu, Hao-Ji Wei, Richard D. Weisel, Hsing-Wen Sung, Ren-Ke Li, “A self-doping conductive polymer hydrogel that can restore electrical impulse propagation at myocardial infarct to prevent cardiac arrhythmia and preserve ventricular function,” Biomaterials, Volume 231, 2020, 119672, ISSN 0142-9612). In brief, each rat was pre-medicated with 5% isoflurane in a chamber.
(§2) The selected rats having similar FS were randomly divided into 6 groups: (1) Negative control group (treated with 40% SBCD); (2) Positive control group (with HBI-3802, 2 mg/kg /day); (3) Dose 1 (HBI-3808 2 mg/kg/day); (4) Dose 2 (HBI-3808 0.64 mg/kg day); (5) Dose 3 (HBI-3808 0.2 mg/kg/day); and (6) Sham control (No myocardial infarction and treated with 40% SBCD).
Oral Treatment: Six days after permanent LAD ligation, the selected rats received the first daily treatment. HBI-3808 (at 1 of the 3 doses) or 3802 at 2 mg/kg/day (1 ml/rat/day) delivered by gastric gavage daily for 14 days (2). 40% SB-CD alone (1 ml/rat/day) was similarly administered to rats in the control and sham groups.
Pressure-Volume Measurement: End-point functional and morphological assessments were performed at 21 days after first treatment (27 days post myocardial infarction). Each rat was anesthetized as described above (Myocardial Infarction), and ventilated. The sternotomy was performed, and a calibrated Millar conductance pressure-volume catheter (Millar Instruments, USA) was inserted into the LV cavity through the apex. Pressure and volume data were collected with the Millar software. Parallel conductance was evaluated after the injection of hypertonic saline solution into the right jugular vein, with the volume measurements corrected for the parallel conductance. To analyze the LV pressure and volume relationship, pressure and volume data were acquired, and real-time pressure-volume loops were constructed. Stroke work (SW) and dP/dt max (indices of systolic function) and dP/dt min and Tau_w (index of diastolic function) as well as LV volumes were compared between the groups.

[2] = tested on: Adult rats (Sprague Dawley) with MI by LAD ligation; assay: Rat myocardial infarction model: morphological studies (scar area and thickness, computed planimetry); assay type: in vivo; details: for scar areas: p<0.05 and 0.01 respectively
From the text: as §1, §2
Morphological Studies: After cardiac functional measurements, the animals were euthanized. The hearts were rapidly excised, fixed with 10% formaldehyde for 7 days, sliced into 2 mm thick slices, and photographed.
Cross-sectional areas of the left ventricular free wall (LVFW) and scar tissue were measured using computed planimetry. Surface areas of the epicardial LVFW and scar tissue were measured as the sum of the epicardial length multiplied by the slice thickness (2 mm). The surface area percentage of scar tissue in the LVFW was calculated as follows: [(epicardial scar area)/(epicardial LVFW area)×100]. The thickness of scar area was presented as an average of wall thickness measured at the middle and at each edge of the scar from the slice having the thinnest scar.

[3] = Solubility in water (temperature dependence); assay type: physicochemical
Experimental: Sodium salt of Pattern 5 was prepared using inverse solubility, with dissolution of HBI-3808 free acid in water at low temperature, and heating to reach super saturation, followed by anti-solvent addition. The solids isolated from this process were consistent with sodium salt of pattern 15, which can be converted to sodium salt of pattern 5 via drying under vacuum with exposure to elevated humidity (and the conversion proceeds via sodium salt of pattern 2 as an intermediate).

[4] = Varying temperature (VT)-XRPD; assay type: physicochemical; details: heating 25 to 250° C. (ethanolamine salt to 300° C.)
Experimental: Varying temperature (VT)-XRPD was carried out between 25-250° C.
VT-XRPD of HBI-3808 sodium salt of Pattern 5 was carried out between 25-250° C. (FIG. 5M). […] At 150° C., the diffractogram changed and was labelled as Pattern 7, indicating formation of HBI-3808 sodium salt of Pattern 7 (see Example 7). Diffractogram of Pattern 7, was observed between 150-250° C. Upon cooling to 25° C., Diffractogram of Pattern 5 was observed again, indicating reformation of HBI-3808 sodium salt of Pattern 5. Pattern 7 has some similarities with Pattern 6 (See Example 6). Both Patterns 6 and 7 may represent anhydrous forms of the HBI-3808 sodium salt. Starting concentration of the of HBI-3808 sodium salt of Pattern 5.
VT-XRPD was carried out according to the temperature program of Table 17B. […] At 210° C., the XRPD diffractogram was consistent with poorly crystalline BBI-3808 free acid of Pattern 1. Free acid (HBI-3808) of Pattern 1 was observed between 210-240° C.

[5] = 2 mg/kg/day, vs 2 mg/kg HBI-3802, 0.64 and 0.2 mg/kg HBI-3808 and control, p<0.05 and 0.01
[6] = 0.2 mg/kg/day, control vs treated
[7] = 0.64 mg/kg/day, control vs treated

SMILES: C[C@@H]1CC[C@]2(C(=O)O)CC[C@]3(C)C(=CCC4[C@@]5(C)C[C@@H](O)[C@H](O)[C@@](C)(CO)C5CC[C@]43C)C2[C@]1(C)O (some centres unmarked) [HBI-3808, 23-hydroxytormentic acid]
- cardiac diastolic function ([1]; 0.2 mg/kg/day, vs control at 21 days after treatment, p<0.01): better cardiac diastolic function compared with control group
- cardiac systolic function ([1]; 0.2 mg/kg/day, vs control at 21 days after treatment, p<0.05): better cardiac systolic function compared with control group
- left ventricular end systolic volumes (ESV) ([1]; 0.2 mg/kg/day, vs control, p<0.02): significantly smaller
- Left ventricular end diastolic volumes (EDV) ([1]; 0.64 mg/kg/day, vs 0.2 mg/kg group, p<0.01): significantly smaller
- stroke work (SW) and dP/dt max (indices of systolic function) ([1]; 2 mg/kg/day, 21 days after treatment, vs 2 mg/kg HBI-3802, 0.64 and 0.2 mg/kg HBI-3808 and control, p<0.01): significantly greater
- end diastolic volumes compared with non-infarcted sham animals ([1]; 2 mg/kg/day, Day 21): the same; also recorded: equivalent to non-infarcted sham animals
- dP/dt min and Tau_w (index of diastolic function) [1, 5]: also improved
- left ventricular end systolic volumes (ESV) [1, 5]: smaller
- Left ventricular end diastolic volumes (EDV) ([1]; 2 mg/kg/day, vs 0.64 and 0.2 mg/kg HBI-3808 and control, p<0.01): smaller
- scar thickness [2, 6]: thinner in the control group
- scar areas [2, 6]: larger in the control group
- scar thickness [2, 7]: thinner in the control group
- scar areas [2, 7]: larger in the control group
- scar thickness ([2]; 2 mg/kg/day, 21 days after first treatment): thinner in the control group
- scar (infarct) areas ([2]; 2 mg/kg/day, 21 days after first treatment, p<0.01): smaller infarct areas than the 2 mg/kg HBI-3802 group

SMILES: CC1CCC2(C(=O)[O-])CCC3(C)C(=CCC4C5(C)CC(O)C(O)C(C)(CO)C5CCC43C)C2C1(C)O.[Na+] (centres unmarked) [HBI-3808 sodium salt of Pattern 5, sodium salt of 23-hydroxytormentic acid]
- solubility in water versus temperature [3]: inverse solubility in water
- temperature range in which diffractograms consistent with the input salt were observed [4]: 25-115 °C
